Laboratory results: patent US20200299612A1, “HIGH PERFORMING, HIGH IMPACT BLOOM ACCORD” (International Flavors & Fragrances Inc., priority 2016, published 2020)

Tests used:
Test in all cases: Antibacterial activity
e. coli = system: e. coli
Text: (§1) The fragrance accords can contain antibacterial ingredients described above. See U.S. Pat. No. 6,495,512 for a list of suitable antibacterial ingredients.

e. hirae = system: e. hirae
Text: as §1

s. aureos = system: s. aureos
Text: as §1

Measured: antibacterial activity

COc1ccc(C)cc1 [1-methoxy-4-methylbenzene]
high antibacterial activity: e. coli | e. hirae | s. aureos

C=CC(C)(O)CCC=C(C)C (stereo not drawn) [3,7-dimethylocta-1,6-dien-3-ol]
high antibacterial activity: e. coli | e. hirae | s. aureos
